Experimental data reported in ChEMBL document CHEMBL6109120, “Discovery of Novel SIK2/3 Inhibitors for the Potential Treatment of MEF2C+ Acute Myeloid Leukemia (AML)” (J Med Chem, 2025).
Blank lines part the entries; values can stand above or below the compound they belong to.

Assays:
[1] = biological target: Tyrosine-protein kinase Lck (Homo sapiens, UniProt P06239); experiment: Binding affinity to human LCK by KINOMEscan assay
[2] = biological target: Serine/threonine-protein kinase SIK1 (Homo sapiens, UniProt P57059); experiment: Inhibition of human SIK1 (02 to 131) assessed as luminescence signal using AMARAtide/ATP as substrate measured after 120 mins by microplate reader
Sequence of Serine/threonine-protein kinase SIK1 (P57059 whole entry): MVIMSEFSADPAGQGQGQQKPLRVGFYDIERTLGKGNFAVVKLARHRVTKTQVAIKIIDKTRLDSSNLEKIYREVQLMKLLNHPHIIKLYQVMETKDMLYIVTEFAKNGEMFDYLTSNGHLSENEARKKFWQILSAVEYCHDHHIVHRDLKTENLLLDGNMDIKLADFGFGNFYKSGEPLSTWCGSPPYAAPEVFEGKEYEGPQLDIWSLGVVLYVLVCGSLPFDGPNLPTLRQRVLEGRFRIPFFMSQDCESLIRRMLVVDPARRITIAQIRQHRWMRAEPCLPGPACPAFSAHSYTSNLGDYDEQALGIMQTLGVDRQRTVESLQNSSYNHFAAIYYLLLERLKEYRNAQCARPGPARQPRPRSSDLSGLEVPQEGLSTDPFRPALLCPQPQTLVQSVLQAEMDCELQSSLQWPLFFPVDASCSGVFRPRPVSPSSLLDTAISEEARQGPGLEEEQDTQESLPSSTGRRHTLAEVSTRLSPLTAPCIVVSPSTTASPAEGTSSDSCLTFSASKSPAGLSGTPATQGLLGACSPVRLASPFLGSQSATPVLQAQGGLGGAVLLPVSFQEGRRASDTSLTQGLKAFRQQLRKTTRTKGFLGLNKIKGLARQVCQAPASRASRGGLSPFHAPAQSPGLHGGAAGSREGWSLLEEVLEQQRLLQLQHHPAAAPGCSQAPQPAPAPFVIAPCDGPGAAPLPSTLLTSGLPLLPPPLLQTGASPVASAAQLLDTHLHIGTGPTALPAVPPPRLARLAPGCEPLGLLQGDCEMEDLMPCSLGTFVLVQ

[3] = biological target: Serine/threonine-protein kinase SIK3 (Homo sapiens, UniProt Q9Y2K2); experiment: Inhibition of recombinant human SIK3 assessed as luminescence signal using AMARAtide/ATP as substrate measured after 120 mins by microplate reader
Sequence of Serine/threonine-protein kinase SIK3 (Q9Y2K2 whole entry): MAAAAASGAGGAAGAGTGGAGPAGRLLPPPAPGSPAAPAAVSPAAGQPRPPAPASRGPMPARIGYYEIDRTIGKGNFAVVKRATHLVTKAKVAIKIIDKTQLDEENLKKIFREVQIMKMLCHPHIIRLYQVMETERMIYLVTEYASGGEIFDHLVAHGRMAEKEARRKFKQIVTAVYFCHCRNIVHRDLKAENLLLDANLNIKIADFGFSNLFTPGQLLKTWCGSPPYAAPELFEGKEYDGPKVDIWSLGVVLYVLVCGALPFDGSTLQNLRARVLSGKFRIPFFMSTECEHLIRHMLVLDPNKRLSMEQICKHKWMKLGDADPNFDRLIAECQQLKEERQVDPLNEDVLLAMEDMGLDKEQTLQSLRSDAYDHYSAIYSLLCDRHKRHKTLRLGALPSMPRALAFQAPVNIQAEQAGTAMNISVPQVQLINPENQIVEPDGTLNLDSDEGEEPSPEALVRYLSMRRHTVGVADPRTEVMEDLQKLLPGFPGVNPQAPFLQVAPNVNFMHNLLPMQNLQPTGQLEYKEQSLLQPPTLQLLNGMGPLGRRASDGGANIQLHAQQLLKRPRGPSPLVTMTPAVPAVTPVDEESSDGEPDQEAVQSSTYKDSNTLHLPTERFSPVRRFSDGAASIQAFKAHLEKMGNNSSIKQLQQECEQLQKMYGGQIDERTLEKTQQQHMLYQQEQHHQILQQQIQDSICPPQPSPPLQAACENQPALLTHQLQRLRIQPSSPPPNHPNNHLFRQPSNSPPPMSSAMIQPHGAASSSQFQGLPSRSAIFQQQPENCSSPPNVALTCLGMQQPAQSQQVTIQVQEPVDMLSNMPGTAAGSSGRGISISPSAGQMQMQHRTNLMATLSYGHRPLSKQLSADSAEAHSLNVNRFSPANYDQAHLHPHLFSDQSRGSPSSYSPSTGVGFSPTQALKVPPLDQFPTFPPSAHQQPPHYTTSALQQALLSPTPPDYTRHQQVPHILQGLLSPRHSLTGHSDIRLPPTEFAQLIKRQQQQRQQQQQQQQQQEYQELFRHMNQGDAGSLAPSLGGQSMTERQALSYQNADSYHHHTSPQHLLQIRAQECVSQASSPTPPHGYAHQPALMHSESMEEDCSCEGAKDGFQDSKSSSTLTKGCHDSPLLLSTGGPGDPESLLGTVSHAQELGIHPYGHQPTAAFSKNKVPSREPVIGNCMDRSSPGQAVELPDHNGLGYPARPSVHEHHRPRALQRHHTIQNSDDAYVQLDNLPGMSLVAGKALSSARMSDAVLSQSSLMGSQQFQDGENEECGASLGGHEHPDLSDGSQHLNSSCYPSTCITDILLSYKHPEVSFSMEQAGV

[4] = biological target: Serine/threonine-protein kinase SIK2 (Homo sapiens, UniProt Q9H0K1); experiment: Inhibition of recombinant full length human SIK2 assessed as luminescence signal using AMARAtide/ATP as substrate measured after 120 mins by microplate reader
Sequence of Serine/threonine-protein kinase SIK2 (Q9H0K1 whole entry): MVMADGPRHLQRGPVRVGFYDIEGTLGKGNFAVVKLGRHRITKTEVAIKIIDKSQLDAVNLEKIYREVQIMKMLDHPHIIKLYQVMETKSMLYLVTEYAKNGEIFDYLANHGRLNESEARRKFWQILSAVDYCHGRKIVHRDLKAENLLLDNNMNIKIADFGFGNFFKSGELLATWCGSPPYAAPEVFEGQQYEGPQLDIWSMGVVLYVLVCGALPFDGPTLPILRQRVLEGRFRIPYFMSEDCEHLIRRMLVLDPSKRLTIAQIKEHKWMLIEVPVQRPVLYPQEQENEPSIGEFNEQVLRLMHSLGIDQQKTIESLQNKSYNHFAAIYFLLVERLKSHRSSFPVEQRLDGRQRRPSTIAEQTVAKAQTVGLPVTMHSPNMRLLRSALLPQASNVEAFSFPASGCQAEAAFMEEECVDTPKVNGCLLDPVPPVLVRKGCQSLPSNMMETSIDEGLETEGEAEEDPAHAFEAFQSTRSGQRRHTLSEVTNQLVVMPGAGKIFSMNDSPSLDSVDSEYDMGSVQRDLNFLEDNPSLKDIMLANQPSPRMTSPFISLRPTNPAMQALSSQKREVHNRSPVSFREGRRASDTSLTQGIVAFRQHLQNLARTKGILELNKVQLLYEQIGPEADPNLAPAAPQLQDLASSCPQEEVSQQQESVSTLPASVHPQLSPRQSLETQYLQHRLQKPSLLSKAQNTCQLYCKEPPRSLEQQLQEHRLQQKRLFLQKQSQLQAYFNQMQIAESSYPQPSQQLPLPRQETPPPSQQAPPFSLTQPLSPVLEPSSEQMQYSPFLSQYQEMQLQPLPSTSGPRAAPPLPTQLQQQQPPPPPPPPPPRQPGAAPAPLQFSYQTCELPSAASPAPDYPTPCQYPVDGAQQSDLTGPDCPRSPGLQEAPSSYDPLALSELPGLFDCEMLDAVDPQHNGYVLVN

[5] = Binding affinity to human ABL by KINOMEscan assay

Sequence of Tyrosine-protein kinase Lck (P06239 whole entry): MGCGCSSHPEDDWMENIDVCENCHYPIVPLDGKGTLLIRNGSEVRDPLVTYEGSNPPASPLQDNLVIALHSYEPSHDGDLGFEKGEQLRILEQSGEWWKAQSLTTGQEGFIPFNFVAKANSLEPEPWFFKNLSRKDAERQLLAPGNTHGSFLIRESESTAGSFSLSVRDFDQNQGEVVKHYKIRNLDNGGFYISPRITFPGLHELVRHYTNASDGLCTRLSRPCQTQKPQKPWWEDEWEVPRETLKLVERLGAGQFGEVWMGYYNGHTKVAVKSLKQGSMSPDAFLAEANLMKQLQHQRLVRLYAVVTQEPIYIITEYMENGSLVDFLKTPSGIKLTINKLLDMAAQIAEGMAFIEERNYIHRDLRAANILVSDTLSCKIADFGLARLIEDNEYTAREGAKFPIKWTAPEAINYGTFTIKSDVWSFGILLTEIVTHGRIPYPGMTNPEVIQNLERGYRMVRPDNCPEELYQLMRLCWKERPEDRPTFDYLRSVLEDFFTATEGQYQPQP

- IC50 [1]: 2.7 nM
Structure (SMILES): Cc1cc(-c2cc(O)ccc2Cl)cc2nnc(Nc3ccc(OCCN4CCCC4)cc3)nc12

- IC50 [2]: 118 nM
- IC50 [3]: 5.7 nM
- IC50 [4]: 4.9 nM
Structure (SMILES): COc1cc(-c2cc(-c3cnn(C4CCOCC4)c3)cnc2N)cc2c1C(=O)N(CC#N)CC2

- IC50 [4]: 39 nM
Structure (SMILES): COc1cc(-c2cc(-c3cnn(S(C)(=O)=O)c3)cnc2N)cc2c1C(=O)N(CC(F)(F)F)CC2

- IC50 [5]: 26.8 nM
Structure (SMILES): CNC(=O)c1cc(Oc2ccc(NC(=O)Nc3cc(C(C)(C)C)nn3-c3ccc4ncccc4c3)c(F)c2)ccn1 [REBASTINIB]
